One assay has as its target Amyloid-beta precursor protein (Homo sapiens, UniProt P05067). As to the kind of experiment: Competitive radioligand binding to pathological aggregated beta amyloid in AD tissue.
Sequence of Amyloid-beta precursor protein (P05067 whole entry): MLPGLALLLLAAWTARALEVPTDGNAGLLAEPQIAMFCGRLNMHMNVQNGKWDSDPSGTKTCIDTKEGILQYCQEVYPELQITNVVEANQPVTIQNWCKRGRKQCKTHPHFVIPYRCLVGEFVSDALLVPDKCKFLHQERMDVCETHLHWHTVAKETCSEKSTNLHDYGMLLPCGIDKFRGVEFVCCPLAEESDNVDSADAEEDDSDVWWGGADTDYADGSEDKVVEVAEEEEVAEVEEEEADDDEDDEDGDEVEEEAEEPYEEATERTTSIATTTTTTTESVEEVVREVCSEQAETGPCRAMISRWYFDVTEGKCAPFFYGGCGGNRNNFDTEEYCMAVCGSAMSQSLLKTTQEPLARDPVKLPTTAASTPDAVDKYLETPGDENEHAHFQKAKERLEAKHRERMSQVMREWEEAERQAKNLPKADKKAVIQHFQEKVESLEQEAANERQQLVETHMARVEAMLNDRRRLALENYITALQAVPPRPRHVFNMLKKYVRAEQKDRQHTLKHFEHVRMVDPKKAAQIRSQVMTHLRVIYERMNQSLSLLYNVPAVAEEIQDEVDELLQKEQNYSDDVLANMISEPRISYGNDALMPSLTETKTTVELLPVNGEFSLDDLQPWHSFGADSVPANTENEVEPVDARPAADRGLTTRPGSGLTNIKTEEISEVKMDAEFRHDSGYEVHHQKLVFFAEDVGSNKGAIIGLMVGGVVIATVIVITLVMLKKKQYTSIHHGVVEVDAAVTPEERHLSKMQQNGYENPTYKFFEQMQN
Regarding `FCCOC[C@H]1CN(c2ncc(/C=C/c3ccc(-n4ccnc4)nc3)cn2)CCN1c1ncccn1` [WO2024186584, Example 3], the Ki came to 4 µM.

The molecule `FCOC[C@H]1CN(c2ncc(/C=C/c3ccc(-n4ccnc4)nc3)cn2)CCN1c1ncccn1` [WO2024186584, Example 4] registered a Ki of 0.1 µM.

The molecule `COC[C@H]1CN(c2ncc(C#Cc3ccc(-n4ccnc4)nc3)cn2)CCN1c1cc(F)ncn1` [WO2024186584, Example 12] returned a Ki of 4 µM.

`COC[C@H]1CN(c2ncccn2)CCN1c1ncc(/C=C/c2ccc(-n3ccnc3)nc2)cn1` [WO2024186584, Example 28] yielded a Ki of 4 µM.

As to `COC[C@H]1CN(c2ncc(/C=C/c3ccc(-n4ccnc4)nc3)cn2)CCN1c1ncc(OCCF)cn1` [WO2024186584, Example 35], the affinity, expressed as Ki, was 4 µM.

`COC[C@H]1CN(c2ncc(/C=C/c3ccc(-n4ccnc4)nc3)cn2)CCN1c1ncc(OCC(O)CF)cn1` (stereo partly drawn) [WO2024186584, Example 39]: the affinity, expressed as Ki, was 4 µM.

In the next assay the target is Alpha-synuclein (Homo sapiens, UniProt P37840). As to the kind of experiment: Alpha-Synuclein Tissue Homogenate Binding Assay. How it is done: For displacement α-synuclein binding assay, compounds and control were solvated in dimethyl sulfoxide (DMSO) and transferred using focused acoustic energy by an Echo 655 liquid handling instrument (Beckman Coulter, Indianapolis, IN) into designated wells of uniquely bar coded 96-well v-bottom low binding polypropylene microplates (Thermo Scientific, 249946). Compound dose response curves were prepared in a 10-point, 3-fold fashion within columns 2 -11 of the microplate from high to low compound concentrations. The final assay concentration of dose response curves when starting at 1 mM ranged from 1.2 µM to 0.061 nM (0.12 % DMSO final assay concentration, 270 nL/well). Controls included no inhibitor (DMSO only) dispensed into wells A1 – D1, A12 – D12 for minimum efficacy signal and Compound 1000 at a final assay concentration of 12 µM into wells E1 – H1, E12 – H12 for maximum efficacy signal. Liquid-handling steps for dispensing insoluble fractions of PD brain homogenates and 25666 radioligand were performed using a Bravo automated liquid handling platform equipped with a 96LT disposable tip head (Agilent Technologies, Santa Clara, CA). […] A clear adhesive seal (TopSeal-A PLUS, PerkinElmer 6050185) was then applied to the top of each microplate and counted 1 minute/well on MicroBeta2 system (PerkinElmer, Model: 2450-0120).
On to `FCOC[C@H]1CN(c2ncc(/C=C/c3ccc(-n4ccnc4)nc3)cn2)CCN1c1ncccn1` [WO2024186584, Example 4], for which the affinity, expressed as Ki, was 1.2 nM.

The molecule `COC[C@H]1CN(c2cc(F)ccn2)CCN1c1ncc(/C=C/c2ccc(-n3ccnc3)nc2)cn1` [WO2024186584, Example 17] showed a Ki of 0.9 nM.

(Values after BindingDB's records for patent WO2024186584 (8932 Hightail Drive, 2024).)
